These results are taken from patent US20180338980A1, “AROMATIC SULFONAMIDE DERIVATIVES” (BAYER PHARMA AKTIENGESELLSCHAFT, priority 2015, published 2018).

The structures appear in SMILES notation.

Holding throughout (type): cell-based
For experiment [1], the target named is T1, mouse P2X4 receptors (Mus musculus, UniProt Q9JJX6).
T1 construct: host or cells: HEK 293 (recombinant, constitutively expressing)
T1 sequence (Q9JJX6 1-388): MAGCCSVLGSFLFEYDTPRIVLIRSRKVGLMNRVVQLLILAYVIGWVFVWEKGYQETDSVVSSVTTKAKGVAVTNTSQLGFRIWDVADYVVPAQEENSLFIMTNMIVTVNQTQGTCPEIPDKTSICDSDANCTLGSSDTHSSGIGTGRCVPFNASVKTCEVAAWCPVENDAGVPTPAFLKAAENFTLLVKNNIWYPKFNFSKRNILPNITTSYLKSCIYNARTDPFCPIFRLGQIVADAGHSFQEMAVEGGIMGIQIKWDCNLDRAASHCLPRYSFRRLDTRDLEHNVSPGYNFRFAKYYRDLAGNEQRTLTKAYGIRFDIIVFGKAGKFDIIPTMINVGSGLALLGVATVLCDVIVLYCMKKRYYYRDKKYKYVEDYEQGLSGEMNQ
As to the kind of experiment: Assay B: mouse P2X4 receptor cell line, Fluo8 fluorescence FLIPR (agonist Bz-ATP at EC50). Conditions: HEK mouse P2X4 cell line, agonist Bz-ATP at EC50, average. How it is done:
The identification of agonists and antagonists of the P2X4 receptor from humans and […] also the quantification of the activity of the compounds of the invention was performed by use of recombinant cell lines. […] The test cell lines constitutively express the mouse or human P2X4 receptors. Stimulation of the receptors with an agonist leads to a conformational change of P2X4 and influx of extracellular calcium ions through the ion channel. The cytoplasmatic calcium transient is detected via the calcium sensitive dye Fluo8 for the mouse P2×4 cell line or in case of the human P2×4 cell line a stably expressed calcium-sensitive photoprotein, mitochondrial photina, which, after reconstitution with the cofactor coelenterazine, emits light in dependence of calcium binding [Bovolenta S, Foti M, Lohmer S, Corazza S., J Biomol Screen. […] The strength of Fluo8 fluorescence signal or photina luminescence signal corresponds to the level of receptor activation. An inhibitor would decrease the signal depending on its potency and concentration.
On the day of the assay medium is exchanged by Fluo8 containing buffer for 30 minutes. In the fluorescence reader (FLIPR) test substances in various concentrations are added for 10 minutes. After baseline measurement the agonist Bz-ATP at EC50 concentration is applied and fluorescence is measured immediately.

Experiment [2] addresses T2, P2X4 (Homo sapiens, UniProt Q99571).
T2 sequence (Q99571 1-388): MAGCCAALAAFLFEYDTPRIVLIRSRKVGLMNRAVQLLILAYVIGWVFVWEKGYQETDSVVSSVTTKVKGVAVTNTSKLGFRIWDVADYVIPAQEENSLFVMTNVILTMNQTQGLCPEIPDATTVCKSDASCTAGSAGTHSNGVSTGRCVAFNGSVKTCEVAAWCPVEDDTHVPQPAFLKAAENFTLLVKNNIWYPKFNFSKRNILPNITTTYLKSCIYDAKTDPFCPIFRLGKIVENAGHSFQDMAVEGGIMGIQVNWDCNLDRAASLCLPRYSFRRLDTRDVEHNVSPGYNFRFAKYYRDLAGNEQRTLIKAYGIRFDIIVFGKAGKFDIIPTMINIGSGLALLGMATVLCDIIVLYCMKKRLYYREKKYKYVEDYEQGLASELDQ
Put plainly: Assay A: human P2X4 receptor cell line, FLIPR calcium assay (Fluo-8, agonist Bz-ATP at EC80). Details: host or cells: HEK 293 (recombinant, constitutively expressing; with mitochondrial photina in Assay B). Conditions: HEK human P2X4 cells, Fluo-8 FLIPR; for IC50: Bz-ATP at EC80, average values; for Emax: percentage of maximal inhibition, read-out: human P2X4 Assay A avg Efficacy. In a few lines: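 HEK cells expressing human P2X4 (20,000/well, plated ~20 h earlier) loaded 30 min with 5 μM Fluo-8 in HBSS/HEPES buffer with 1.8 mM CaCl2, 1 mM MgCl2, 2 mM probenecid, pH 7.4. Antagonist preincubated 30 min at room temperature (0.5% DMSO), then Bz-ATP at EC80. Peak fluorescence over 120 s, normalized to DMSO; triplicate IC50 and Hill fits.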

The target in experiment [3] is T2, P2X4. Put plainly: Assay B: human P2X4 receptor cell line, mitochondrial photina luminescence (agonist Bz-ATP at EC50). Details: host or cells: HEK 293 (recombinant, constitutively expressing; with mitochondrial photina in Assay B). Conditions: HEK human P2X4 cell line, photina luminescence, agonist Bz-ATP at EC50, average; for Emax: read-out: human P2X4 Assay B avg Efficacy. The procedure, abridged: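 Recombinant cell line constitutively expressing human P2X4 and mitochondrial photina photoprotein, reconstituted with coelenterazine. Receptor stimulated with Bz-ATP at EC50; calcium influx read immediately as luminescence.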

What is called IC50 is the concentration at which inhibition is half-maximal. For `Cc1cc(NC(=O)Cc2ccccc2Cl)cc(S(N)(=O)=O)c1Oc1cccc(Cl)c1` [Example 270, N-[4-(3-Chlorophenoxy)-3-methyl-5-sulfamoylphenyl]-2-(2-chlorophenyl)acetamide], in experiment [1], the IC50 worked out at 1240 nM and the “mouse P2X4 Assay B avg Efficacy” value is given as 44%. In experiment [2], the IC50 is 104 nM and the Emax came out at 94%.

In the case of `NS(=O)(=O)c1cc(NC(=O)Cc2ccccc2Cl)ccc1Oc1ccccc1` [Example 014, 2-(2-Chlorophenyl)-N-(4-phenoxy-3-sulfamoylphenyl)acetamide], in experiment [1], the IC50 is greater than 16000 nM and the “mouse P2X4 Assay B avg Efficacy” value worked out at 25%. Besides, in experiment [3], the Emax was 70%. Further, in experiment [2], the Emax worked out at 85%.

As to `NS(=O)(=O)c1cc(NC(=O)Cc2ccccc2Cl)ccc1OCCc1cccc(Cl)c1` [Example 156, 2-(2-Chlorophenyl)-N-{4-[2-(3-chlorophenyl)ethoxy]-3-sulfamoylphenyl}acetamide], in experiment [1], the IC50 was greater than 50000 nM and the “mouse P2X4 Assay B avg Efficacy” value was 25%. In experiment [3], the 50% inhibitory concentration (IC50) was determined as 47 nM and the Emax was found to be 58%. Besides, in experiment [2], the IC50 was found to be 12 nM and the Emax worked out at 81%.

Turning to `NS(=O)(=O)c1cc(NC(=O)Cc2c(Cl)cccc2Cl)ccc1Oc1cccc(Cl)c1` [Example 104, N-[4-(3-Chlorophenoxy)-3-sulfamoylphenyl]-2-(2,6-dichlorophenyl)acetamide], in experiment [1], the IC50 was 604 nM and the “mouse P2X4 Assay B avg Efficacy” value is recorded as 59%. Also, the Emax in experiment [3] is 60%. Further, in experiment [2], the Emax is 78%.

Consider `NS(=O)(=O)c1cc(NC(=O)Cc2ccccc2Cl)ccc1OCC1CCCC1` [Example 160, 2-(2-Chlorophenyl)-N-[4-(cyclopentylmethoxy)-3-sulfamoylphenyl]acetamide], for which the IC50 is 1030 nM in experiment [1], 40 nM in experiment [3] and 10 nM in experiment [2]. In experiment [1], the “mouse P2X4 Assay B avg Efficacy” value is listed as 62%. The Emax came to 67% in experiment [3] and 71% in experiment [2].

Turning to `NS(=O)(=O)c1cc(NC(=O)Cc2cc(F)ccc2Cl)ccc1OCC1CCOCC1` [Example 163, 2-(2-Chloro-5-fluorophenyl)-N-[3-sulfamoyl-4-(tetrahydro-2H-pyran-4-ylmethoxy)phenyl]acetamide], in experiment [1], the IC50 is 3500 nM and the “mouse P2X4 Assay B avg Efficacy” value is reported as 65%. Moreover, in experiment [3], the Emax was found to be 61%. Besides, in experiment [2], the Emax was 68%.

`NS(=O)(=O)c1cc(NC(=O)Cc2ccccc2Cl)ccc1OC1CCOCC1` [Example 207, 2-(2-Chlorophenyl)-N-[3-sulfamoyl-4-(tetrahydro-2H-pyran-4-yloxy)phenyl]acetamide]: in experiment [1], the IC50 was no less than 16000 nM and the “mouse P2X4 Assay B avg Efficacy” value was 20%. In experiment [3], the IC50 is 100 nM and the Emax came to 77%. Also, in experiment [2], the IC50 was 473 nM and the Emax is 60%.

Turning to `NS(=O)(=O)c1cc(NC(=O)Cc2ccccc2Cl)ccc1OC1CCS(=O)(=O)C1` (stereo not shown) [Example 232, 2-(2-Chlorophenyl)-N-{4-[(1,1-dioxidotetrahydrothiophen-3-yl)oxy]-3-sulfamoylphenyl}acetamide], in experiment [1], the IC50 worked out at 3330 nM and the “mouse P2X4 Assay B avg Efficacy” value was determined as 61%. Also, in experiment [3], the IC50 is 149 nM and the Emax stood at 49%. Also, in experiment [2], the IC50 worked out at 215 nM and the Emax turned out to be 57%.

`NS(=O)(=O)c1cc(NC(=O)Cc2ccccn2)ccc1Oc1cccc(Cl)c1` [Example 185, N-[4-(3-Chlorophenoxy)-3-sulfamoylphenyl]-2-(pyridin-2-yl)acetamide]: in experiment [1], the IC50 was greater than 16000 nM and the “mouse P2X4 Assay B avg Efficacy” value stood at 22%. In addition, in experiment [3], the IC50 came out at 567 nM and the Emax came out at 77%.

`NS(=O)(=O)c1cc(NC(=O)Cc2ccccc2Cl)ccc1Oc1cccc(Cl)c1` [Example 187, N-[4-(3-Chlorophenoxy)-3-sulfamoylphenyl]-2-(2-chlorophenyl)acetamide]: the “mouse P2X4 Assay B avg Efficacy” value in experiment [1] stood at 41%.

`COC(=O)c1ccccc1Oc1ccc(NC(=O)Cc2ccccc2Cl)cc1S(N)(=O)=O` [Example 272, Methyl 2-(4-{[(2-chlorophenyl)acetyl]amino}-2-sulfamoylphenoxy)benzoate]: in experiment [1], the IC50 was greater than 16000 nM and the “mouse P2X4 Assay B avg Efficacy” value worked out at 25%. Also, in experiment [2], the IC50 came out at 19 nM and the Emax is 73%.

Turning to `COC(=O)c1ccc(Oc2ccc(NC(=O)Cc3ccccc3Cl)cc2S(N)(=O)=O)cc1` [Example 273, Methyl 4-(4-{[(2-chlorophenyl)acetyl]amino}-2-sulfamoylphenoxy)benzoate], in experiment [1], the IC50 is 149 nM and the “mouse P2X4 Assay B avg Efficacy” value is given as 45%. Also, in experiment [2], the IC50 was 18 nM and the Emax is 78%.

For `CC(C(=O)Nc1ccc(Oc2cccc(Cl)c2)c(S(N)(=O)=O)c1)c1c(F)cccc1Cl` (stereo not shown) [Example 258, 2-(2-Chloro-6-fluorophenyl)-N-[4-(3-chlorophenoxy)-3-sulfamoylphenyl]propanamide], in experiment [1], the IC50 is 260 nM and the “mouse P2X4 Assay B avg Efficacy” value amounted to 52%. Besides, in experiment [2], the IC50 was determined as 779 nM and the Emax came to 76%.

For `NS(=O)(=O)c1cc(NC(=O)Cc2ccccc2Cl)ccc1Oc1ccc(F)cc1` [Example 012, 2-(2-chlorophenyl)-N-[4-(4-fluorophenoxy)-3-sulfamoylphenyl]acetamide], in experiment [1], the IC50 was determined as 1240 nM and the “mouse P2X4 Assay B avg Efficacy” value was found to be 44%. Further, in experiment [3], the IC50 worked out at 43 nM and the Emax came to 56%. Besides, in experiment [2], the IC50 was found to be 20 nM and the Emax is 70%.

Take `Cc1cc(NC(=O)Cc2ccccc2)cc(S(N)(=O)=O)c1Oc1cccc(Cl)c1` [Example 271, N-[4-(3-Chlorophenoxy)-3-methyl-5-sulfamoylphenyl]-2-phenylacetamide]: in experiment [1], the IC50 was greater than 16000 nM and the “mouse P2X4 Assay B avg Efficacy” value came out at 31%. Also, in experiment [2], the IC50 was found to be 81 nM and the Emax is 84%.

In the case of `CC(C)(O)c1ccccc1Oc1ccc(NC(=O)Cc2ccccc2Cl)cc1S(N)(=O)=O` [Example 275, 2-(2-Chlorophenyl)-N-{4-[2-(2-hydroxypropan-2-yl)phenoxy]-3-sulfamoylphenyl}acetamide], the “mouse P2X4 Assay B avg Efficacy” value in experiment [1] was found to be 44%.

Turning to `NS(=O)(=O)c1cc(NC(=O)Cc2ccccc2Cl)ccc1Oc1cncc(Cl)c1` [Example 029, 2-(2-Chlorophenyl)-N-{4-[(5-chloropyridin-3-yl)oxy]-3-sulfamoylphenyl}acetamide], the “mouse P2X4 Assay B avg Efficacy” value in experiment [1] is reported as 50%.

In the case of `NS(=O)(=O)c1cc(NC(=O)Cc2ccccc2)ccc1OCc1ccccc1` [Example 146, N-[4-(Benzyloxy)-3-sulfamoylphenyl]-2-phenylacetamide], in experiment [1], the IC50 is greater than 50000 nM and the “mouse P2X4 Assay B avg Efficacy” value is recorded as 7%. Besides, in experiment [3], the IC50 is 314 nM and the Emax is 71%.
